Assay results as given in patent US8247612B2, “Organic sulfur compound and its use for controlling harmful arthropod” (Sumitomo Chemical Company, Limited, priority 2007, dated 2012).

Legend:
Format in all cases: in vivo
[1] = system: Blattalla germanica; test: Test Example 3: treated filter paper with sucrose bait, death rate of Blattalla germanica; conditions: 144 h; 500 ppm test solution, 0.7 ml on filter paper; 2 male imagoes; after 6 days
Procedure: (§1) Preparations of the present compounds (2), (3), (5), (6), (10), (11), (12), (14), (15), (16), (17), (19), (20), (24), (25), (26), (29), (30) and (31) obtained according to Formulation Example 36 were diluted so that the active ingredient concentration was 500 ppm to obtain test solutions.
(§2) A filter paper having a diameter of 5.5 cm was spread on the bottom of a polyethylene cup having a diameter of 5.5 cm and 0.7 ml of the test solution was added dropwise onto the filter paper. As a bait 30 mg of sucrose was uniformly placed on the filter paper. Into the polyethylene cup, 2 male imagoes of Blattalla germanica were released and the cup was sealed with a lid. After 6 days, the number of surviving Blattalla germanica was examined and the death rate of the pest was calculated.
As a result, in treatments with the present compounds (2), (3), (5), (6), (10), (11), (12), (14), (15), (16), (17), (19), (20), (24), (25), (26), (29), (30) and (31), the death rate of the pest was 100%.

[2] = system: Musca domestica; test: Test Example 2: treated filter paper with sucrose bait, death rate of Musca domestica; conditions: 500 ppm test solution, 0.7 ml on filter paper, 10 female imagoes, after 24 hours
Procedure: as §1, with “(6), (9),” for “(6),”, “(12), (13),” for “(12),”, “(26), (28),” for “(26),”
as §2, with “10 female” for “2 male”, “Musca domestica” for “Blattalla germanica”, “24 hours,” for “6 days,”
As a result, in treatments with the present compounds (2), (3), (5), (6), (9), (10), (11), (12), (13), (14), (15), (16), (17), (19), (20), (24), (25), (26), (28), (29), (30) and (31), the death rate of the pest was 70% or more.

[3] = system: Culex pipiens pallens; test: Test Example 4: larvae in treated water, death rate of Culex pipiens pallens; conditions: 24 h, active ingredient concentration 3.5 ppm in water, 20 last-instar larvae, after one day
Procedure: Preparations of the present compounds (1), (2), (3), (4), (5), (6), (9), (10), (11), (12), (14), (15), (16), (17), (19), (20), (22), (23), (24), (26), (27), (28), (29), (30) and (31) obtained according to Formulation Example 36 were diluted so that the active ingredient concentration was 500 ppm to obtain test solutions. To 100 mL of ion-exchanged water, 0.7 ml of the test solution was added (active ingredient concentration: 3.5 ppm). Into the solution, 20 last-instar larvae of Culex pipiens pallens were released. After one day, the number of surviving Culex pipiens pallens was examined and the death rate of the pest was calculated. As a result, in treatments with the present compounds (1), (2), (3), (4), (5), (6), (9), (10), (11), (12), (14), (15), (16), (17), (19), (20), (22), (23), (24), (26), (27), (28), (29), (30) and (31), the death rate of the pest was 90% or more.

[4] = system: Haemaphysalis longicornis; test: Test Example 5: treated filter paper pouch, death rate of ticks; conditions: filter paper treated with 100 mg/m^2; non-blood-sucking nymphal ticks, 10 ticks/group; after 2 days
Procedure: Five milligrams of any one of the present compounds (3), (10), (14), (15), (16) and (17) was dissolved in 10 mL of acetone. One milliliter of the acetone solution was uniformly applied on one side of a filter paper (TOYO No. 2; 5×10 cm), so that the filter paper was treated with 100 mg/m^2 of the present compound. After drying, the filter paper was folded in two and its edges were clipped to make a pouch. Non-blood-sucking nymphal ticks (Haemaphysalis longicornis, 10 ticks/group) were put into the pouch, and the pouch was sealed with clips. After 2 days, the number of surviving ticks was examined and the death rate was calculated. As a result, in treatments with the present compounds (3), (10), (14), (15), (16) and (17), the death rate of the tick was 90%.

SMILES	pest or weed control at 500 ppm [1]	pest or weed control at 500 ppm [2]	pest or weed control at 3.5 ppm [3]	death rate of the tick [4]
CC(CCC(C#N)S(=O)(=O)CCC(F)(F)F)C(F)(F)F (centres unmarked) [present compound (10), 6,6,6-trifluoro-5-methyl-2-(3,3,3-trifluoropropylsulfonyl)hexanenitrile]	100%	≥ 70%	≥ 90%	90%
CCC(CCC(C#N)S(=O)(=O)CCC(F)(F)F)C(F)(F)F (centres unmarked) [present compound (14), 5-(trifluoromethyl)-2-(3,3,3-trifluoropropylsulfonyl)heptanenitrile]	100%	≥ 70%	≥ 90%	90%
CCC(CCC(F)(C#N)S(=O)(=O)CCC(F)(F)F)C(F)(F)F (centres unmarked) [present compound (15), 2-fluoro-5-(trifluoromethyl)-2-(3,3,3-trifluoropropylsulfonyl)heptanenitrile]	100%	≥ 70%	≥ 90%	90%
CCC(CCC(Cl)(C#N)S(=O)(=O)CCC(F)(F)F)C(F)(F)F (centres unmarked) [present compound (16), 2-chloro-5-(trifluoromethyl)-2-(3,3,3-trifluoropropylsulfonyl)heptanenitrile]	100%	≥ 70%	≥ 90%	90%
CCC(CCC(C)(C#N)S(=O)(=O)CCC(F)(F)F)C(F)(F)F (centres unmarked) [present compound (17), 2-methyl-5-(trifluoromethyl)-2-(3,3,3-trifluoropropylsulfonyl)heptanenitrile]	100%	≥ 70%	≥ 90%	90%
